Experiments:
factor Xa, human = factor Xa, human (Homo sapiens, UniProt P00742); assay: Inhibition of factor Xa ("Affinity to receptors"); assay type: biochemical
From the text: The inhibition of factor Xa by the compounds according to the invention and the measurement of the anticoagulant and antithrombotic activity can be determined by conventional in-vitro or in-vivo methods. A suitable method is described, for example, by J. Hauptmann et al. in Thrombosis and Haemostasis 1990, 63, 220-223.
The inhibition of factor Xa can be measured, for example, by the method of T. Hara et al. in Thromb. Haemostas. 1994, 71, 314-319.

TF/VIIa = TF/VIIa (Homo sapiens, UniProt P08709); assay: Inhibition of TF/VIIa ("Affinity to receptors"); assay type: biochemical
Chain of TF/VIIa (P08709 213-466 limits assumed): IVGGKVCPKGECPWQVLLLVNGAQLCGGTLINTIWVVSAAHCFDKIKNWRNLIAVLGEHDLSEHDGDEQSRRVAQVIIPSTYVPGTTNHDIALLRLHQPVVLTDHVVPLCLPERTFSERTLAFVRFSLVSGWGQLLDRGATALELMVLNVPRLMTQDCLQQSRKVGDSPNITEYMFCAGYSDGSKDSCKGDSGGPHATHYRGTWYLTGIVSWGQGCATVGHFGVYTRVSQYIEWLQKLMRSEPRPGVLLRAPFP
Chain of TF/VIIa (P08709 61-212 limits assumed): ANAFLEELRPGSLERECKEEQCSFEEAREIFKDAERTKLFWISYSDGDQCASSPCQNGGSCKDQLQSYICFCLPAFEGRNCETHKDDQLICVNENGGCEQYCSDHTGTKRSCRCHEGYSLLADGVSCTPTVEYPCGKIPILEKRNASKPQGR
Chain of TF/VIIa (P13726 33-295 partner): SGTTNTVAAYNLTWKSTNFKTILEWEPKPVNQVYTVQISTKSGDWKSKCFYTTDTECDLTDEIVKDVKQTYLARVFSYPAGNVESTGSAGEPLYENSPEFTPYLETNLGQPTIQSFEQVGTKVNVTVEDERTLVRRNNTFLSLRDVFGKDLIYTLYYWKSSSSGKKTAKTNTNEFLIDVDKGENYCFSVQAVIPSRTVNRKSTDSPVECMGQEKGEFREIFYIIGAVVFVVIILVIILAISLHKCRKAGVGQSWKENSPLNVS
From the text: The inhibition of factor VIIa by the compounds according to the invention and the measurement of the anticoagulant and antithrombotic activity can be determined by conventional in-vitro or in-vivo methods. A conventional method for the measurement of the inhibition of factor VIIa is described, for example, by H. F. Ronning et al. in Thrombosis Research 1996, 84, 73-81.

Chain of factor Xa, human (P00742 235-488 limits assumed): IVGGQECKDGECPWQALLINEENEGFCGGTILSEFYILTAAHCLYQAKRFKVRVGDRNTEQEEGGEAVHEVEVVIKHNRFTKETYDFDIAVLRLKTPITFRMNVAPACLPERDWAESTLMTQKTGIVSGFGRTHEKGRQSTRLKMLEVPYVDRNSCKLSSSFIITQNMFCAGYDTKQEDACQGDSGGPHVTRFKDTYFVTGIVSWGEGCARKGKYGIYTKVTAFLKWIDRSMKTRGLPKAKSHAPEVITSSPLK
Chain of factor Xa, human (P00742 41-179 limits assumed): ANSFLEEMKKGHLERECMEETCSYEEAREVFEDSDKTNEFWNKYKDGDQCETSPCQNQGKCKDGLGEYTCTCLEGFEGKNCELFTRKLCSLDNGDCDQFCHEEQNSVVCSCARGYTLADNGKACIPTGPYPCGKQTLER

SMILES | IC50 (factor Xa, human) [nM] | IC50 (TF/VIIa) [nM] | melting point [°C]
CCCN(Cc1cccc(C(=N)N)c1)C(=O)Nc1ccc(-c2ccccc2S(N)(=O)=O)cc1 [Example 3.3, 1-(3-amidino-benzyl)-3-(2′-sulfamoylbiphenyl-4-yl)-1-propylurea] | 140 | 80 | 166 to 167
CCCN(Cc1cccc(C(=N)N)c1)C(=O)Nc1ccc(-c2ccccc2S(C)(=O)=O)cc1 [Example 4.3, 1-(3-amidino-benzyl)-3-(2′-methylsulfonylbiphenyl-4-yl)-1-propylurea] | 100 | 30 | –
N=C(N)c1cccc(CN(C(=O)Nc2ccc(-c3ccccc3S(N)(=O)=O)cc2)c2ccccc2)c1 [Example 5.3, 1-(3-amidinobenzyl)-3-(2′-sulfamoylbiphenyl-4-yl)-1-phenylurea] | 330 | 100 | 201 to 202
CS(=O)(=O)c1ccccc1-c1ccc(NC(=O)N(Cc2ccccc2)Cc2cccc(C(=N)N)c2)cc1 [1-(3-amidinobenzyl)-3-(2′-methylsulfonylbiphenyl-4-yl)-1-benzylurea] | 80 | 26 | –
CS(=O)(=O)c1ccccc1-c1ccc(NC(=O)N(Cc2cccc(C(=N)N)c2)c2ccccc2)cc1 [Example 6.3, 1-(3-amidinobenzyl)-3-(2′-methylsulfonylbiphenyl-4-yl)-1-phenylurea] | 300 | 70 | –
